From article doi:10.1101/2020.09.15.275891v2 (biorxiv, 2020)

How the values were obtained:
in vitro = conditions: human, caco-2 cells
mature MHV M^pro = mature MHV M^pro (Murine hepatitis virus strain A59, UniProt P0C6X9); test: fluorogenic peptide cleavage; format: biochemical
mature SARSCoV2 M^pro = mature SARSCoV2 M^pro (Severe acute respiratory syndrome coronavirus 2, UniProt P0DTD1); test: biochemical

mature MHV M^pro, sequence (P0C6X9 3334-3635): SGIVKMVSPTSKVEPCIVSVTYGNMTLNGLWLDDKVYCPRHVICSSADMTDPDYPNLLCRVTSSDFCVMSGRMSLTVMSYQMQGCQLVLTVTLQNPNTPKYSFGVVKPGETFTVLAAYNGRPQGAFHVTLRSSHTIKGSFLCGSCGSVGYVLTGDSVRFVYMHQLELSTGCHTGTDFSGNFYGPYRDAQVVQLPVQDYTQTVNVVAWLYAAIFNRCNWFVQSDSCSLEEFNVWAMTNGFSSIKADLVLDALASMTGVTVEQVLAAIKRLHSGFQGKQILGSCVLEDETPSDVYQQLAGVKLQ

Row | Compound | CC50 (in vitro) [µM] | IC50 (mature MHV M^pro) [µM] | IC50 (mature SARSCoV2 M^pro) [µM]
1 | CC(C)C[C@H](NC(=O)OCc1ccccc1)C(=O)N[C@@H](C[C@@H]1CCNC1=O)C(O)S(=O)(=O)O (some centres unmarked) [GC-376] | > 100 |  | 
2 | CC(C)(C)NC(=O)N[C@H](C(=O)N1C[C@H]2[C@@H]([C@H]1C(=O)N[C@@H](C[C@@H]1CCNC1=O)C(=O)C(N)=O)C2(C)C)C(C)(C)C [ML1000] | > 100 | 0.13 ± 0.025 | 
3 | CC(C)(C)NC(=O)N[C@H](C(=O)N1C[C@@H]2CCC[C@@H]2[C@H]1C(=O)N[C@@H](C[C@@H]1CCNC1=O)C(=O)C(N)=O)C(C)(C)C [ML1100] | > 100 | 0.301 ± 0.152 | 0.147 ± 0.008
4 | CC(C)(C)NC(=O)N[C@H](C(=O)N1C[C@H]2[C@@H]([C@H]1C(=O)NC(CC1CCC1)C(=O)C(N)=O)C2(C)C)C(C)(C)C (some centres unmarked) [boceprevir] | > 100 | 15 ± 7 | 
